# Results from US9434687B2, “Detection of synthetic cannabinoids” (priority 2011, dated 2016).
# Tests used:
# Type in all cases: binding, sheep
# [1] = system: antibodies raised to Immunogens I & II; experiment: Competitive ELISA, selected molecules as potential cross-reactants (Table 3); conditions: for % CR / IC50: Table 3, standard conc 750.00 ng/ml
# Method: (a) The wells of an enhanced binding 96 well polystyrene microtiter plate were coated with the Ig fraction of the antiserum raised to Immunogen I (Hapten A-BTG—example 5) and diluted in 10 mM Tris, pH8.5 (125 μl/well). The appropriate antibody coating concentration was determined using standard ELISA checkerboard techniques. The plate was incubated for 2 hours at 37° C., washed 4 times over a 10-minute period with Tris buffered saline containing Tween 20 (TBST) and tapped dry. Standard solutions of JWH synthetic cannabinoids, metabolites and selected molecules were prepared in TBST and 50 μl of each was added to the appropriate wells. 75 μl of conjugate (Hapten A-HRP) diluted in Tris buffer containing EDTA, D-mannitol, sucrose, thimerosal and BSA, was added to each of the wells. The appropriate dilution of conjugate was also determined using standard ELISA checkerboard techniques. The plate was incubated at 25° C. for 1 hour. The excess unbound conjugate was removed by washing 6 times over a 10-minute period with TBST and tapped dry. 125 μl of tetramethylbenzedine (TMB) substrate solution was added to each well of the plate that was then incubated for 15-20 minutes in the dark at room temperature. The reaction was terminated by addition of 125 μl of 0.2M sulphuric acid to each well. The absorbance was then measured at 450 nm using a microtiter plate reader.
# Employing each series of standards, calibration curves were generated and these were used to determine the specificity of the immunoassay for the JWH synthetic cannabinoids, metabolites and selected molecules. The results of this study are presented in Tables 1 to 3, cross-reactivity being calculated according to the following formula: % CR=IC50,JWH-018/IC50,CR×100
# Where % CR is the percentage cross-reactivity, IC50, JWH-018 is the concentration of JWH-018 that causes 50% displacement of signal and IC50, CR is the concentration of JWH synthetic cannabinoid/metabolite/selected molecule that causes 50% displacement of signal.
# The antibody produced from Immunogen I is able to bind to JWH molecules known to be incorporated in herbal therapeutics such as JWH-018, proposed metabolites such as M2 (Wintermeyer et al 2010), and potential metabolites such as M5. The detection and quantification of other JWH SSCs is also provided for, the antibodies of the invention bind a range of molecules comprising the 3-(1-naphthoyl)-1H-indole structure (e.g. JWH-071, JWH-398, M1 etc.). […] The concept of using the antibodies of the invention to detect and determine future stealth synthetic cannabinoids is highlighted in Table 4; the 5-fluoropentyl derivative known to bind the CB 1 receptor, but which as of yet has not been detected in herbal therapeutics or similar substances, binds to antibodies raised from Immunogens I and II.
# [2] = system: IgG fraction of antiserum raised to Immunogen I; conditions: Antibody to Immunogen I; cross-reactants at 100 ng/ml; 1000 ng/ml; standard JWH-018
# Outline: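 Plates were coated with the IgG fraction of sheep antiserum raised to Immunogen I and incubated with standards (JWH-018, 0-40 ng/ml) plus hapten-HRP conjugate for 1 h at 25° C. Detection used TMB, read at 450 nm. IC50 was taken from a 4-parameter fit as the concentration giving half the zero-standard OD.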
# [3] = system: IgG fraction of antiserum raised to Immunogen IV; conditions: Antibody to Immunogen IV; cross-reactants at 100 ng/ml; 1000 ng/ml; standard JWH-018
# [4] = system: IgG fraction of antiserum raised to Immunogen VIII; conditions: Antibody to Immunogen VIII; cross-reactants at 100 ng/ml; 1000 ng/ml; standard JWH-018
# [5] = system: IgG fraction of antiserum raised to Immunogen VII; conditions: Antibody to Immunogen VII; cross-reactants at 100 ng/ml; 1000 ng/ml; standard JWH-015
# [6] = system: IgG fraction of antiserum raised to Immunogen II; experiment: Competitive ELISA, antibody RS1833B12 to Immunogen II, tracer ESC4555 (Example 36); conditions: Antibody to Immunogen II; cross-reactants at 100 ng/ml; 1000 ng/ml; standard JWH-018
# Method: An aqueous solution of each immunogen was formulated with Freund's Complete Adjuvant (FCA) to form an emulsion consisting of 2 mg/ml*immunogen in 50% (v/v) FCA. Three sheep were immunised with this emulsion (1° immunisation), 0.25 ml being intramuscularly injected at each of four sites in the flank of each animal. Subsequent immunizations (boosts) contained 1 mg/ml*immunogen. All boosts were emulsified in 50% (v/v) Freund's Incomplete Adjuvant (FIA) and were administered in the same manner as the 1° immunisation, at monthly intervals. Blood sampling took place 7 to 14 days after each boost. *The general procedure for immunogen administration is outlined above, however, it was necessary to deviate from this protocol in some cases, due to reduced immunogen concentrations (Immunogens II, IV, VII and VIII) and/or amount available (Immunogen VIII). Any deviations from the protocol described are outlined in Table 5 below and highlighted in bold.
# The appropriate antibody coating dilution was determined using standard ELISA checkerboard techniques. The plate was incubated overnight at 4° C., washed 4 times over 10 minutes with Tris buffered saline containing Tween 20 (TBST) and tapped dry. […] 75 μl of conjugate (appropriate hapten-HRP) diluted in Tris buffer (pH 7.2) containing EDTA, D-mannitol, sucrose, thimerosal and BSA, was added to each of the wells. The appropriate dilution of conjugate was also determined using standard ELISA checkerboard techniques. The plate was incubated at 25° C. for 1 hour. Excess unbound conjugate was removed by washing 6 times over a 10 minute period with TBST. 125 μl of tetramethylbenzidine (TMB) substrate solution was added to each well of the plate that was then incubated for 20 minutes in the dark at room temperature. The reaction was terminated by addition of 125 μl 0.2M H2SO4 to each well. The absorbance was then measured at 450 nm using a microtiter plate reader. The data are inputted to a computer program called ‘KC Junior’. It is a 4 parameter fit curve and allow the calculation of concentrations between the standard runs.
# In a similar manner to that described above, the wells of a 96-well microtiter plate were coated with the IgG fraction of the antiserum raised to Immunogens I or II.
# The data set out in Tables 7-10 are generated using antibodies raised against the indicated Immunogens in a competitive binding assay with the indicated tracers, using the indicated standards
# Using the calibration curves generated and employing a single level of cross reactants, these were used to determine the cross-reactivity of each immunoassay with these substances. These are the standards used for the IC50 and cross-reactivity data generation: […]
Structure (SMILES),% CR [1] [%],IC50 [1] [µg/mL],% B/B0 [2] [%],% B/B0 [3] [%],% B/B0 [4] [%],% B/B0 [5] [%],% B/B0 [6] [%],binding / cross-reaction with antibodies raised from Immunogens I and II (in words) [1]
"CCCCCn1cc(C(=O)O)c2ccccc21 [3-Carboxy-N-pentyl-1H-indole, 3-carboxy-1-pentyl-1H-indole]",<0.28,>0.75,,,,,,
COc1cccc2[nH]cc(CCN(C)C)c12 [4-Methoxypsilocin],<0.28,>0.75,,,,,,
O=C(O)Cc1c[nH]c2ccc(O)cc12 [5-hydroxyindole-3-acetic acid],<0.28,>0.75,98.71,96.61,108.24,99.46,,
CCCCCc1cc(O)c2c(c1)OC(C)(C)[C@@H]1CCC(CO)=C[C@@H]21 [11-Hydroxy-δ-9-THC],<0.28,>0.75,,,,,,
CCCCn1c(C)c(C(=O)c2cccc3ccccc23)c2ccccc21 [JWH-016],,,20.71,91.14,75.24,19.31,68.73,
CCCCCn1cc(C(=O)c2cccc3ccccc23)c2ccc(OC)cc21 [JWH-018 6-methoxyindole analogue],,,10.55,90.65,77.22,72.33,20.44,
"CC(C)(C)Cn1cc(C(=O)c2cccc3ccccc23)c2ccccc21 [JWH-018 N-(2,2-dimethylpropyl) isomer]",,,3.89,80.42,95.09,52.46,60.15,
CCCCCCn1cc(C(=O)c2cccc3ccccc23)c2ccccc21 [JWH-019],,,7.22,21.96,74.50,70.05,15.42,
CCCCCCCn1cc(C(=O)c2cccc3ccccc23)c2ccccc21 [JWH-020],,,16.03,73.73,100.73,81.30,35.75,
C=CCCCn1cc(C(=O)c2cccc3ccccc23)c2ccccc21 [JWH-022],,,4.51,10.61,28.94,58.44,11.72,
CCn1cc(C(=O)c2cccc3ccccc23)c2ccccc21 [JWH-071],,,,,,,,bind
CC(O)CCn1cc(C(=O)c2cccc3ccccc23)c2ccccc21 (stereo not drawn) [JWH-073 N-(3-hydroxybutyl) metabolite],,,3.10,53.52,94.04,43.39,54.52,
O=C(c1cccc2ccccc12)c1cn(CCCCO)c2ccccc12 [JWH-073 N-(4-hydroxybutyl) metabolite],,,3.22,52.61,57.99,48.81,60.01,
O=C(O)CCCn1cc(C(=O)c2cccc3ccccc23)c2ccccc21 [JWH-073 N-butanoic acid metabolite],,,6.88,98.95,94.98,60.01,92.20,
CCCCCn1cc(C(=O)c2cccc3c(OC)cccc23)c2ccccc21 [JWH-081 5-methoxynaphthyl isomer],,,18.51,6.24,26.56,94.16,60.90,
Cc1ccc(C(=O)c2cn(CCCCCO)c3ccccc23)c2ccccc12 [JWH-122 N-(5-hydroxypentyl) metabolite],,,42.80,25.72,48.67,83.65,71.76,
CCCCCn1cc(C(=O)c2ccc(C)c3ccccc23)c2ccccc21 [JWH-122],,,62.98,3.94,14.43,89.37,44.55,
O=C(c1cccc2ccccc12)c1cn(CCN2CCOCC2)c2cccc(O)c12 [JWH-200 4-hydroxyindole metabolite],,,44.97,87.88,91.82,91.15,78.17,
O=C(c1cccc2ccccc12)c1cn(CCN2CCOCC2)c2ccc(O)cc12 [JWH-200 5-hydroxyindole metabolite],,,12.61,97.53,90.88,82.42,64.99,
O=C(c1cccc2ccccc12)c1cn(CCN2CCOCC2)c2cc(O)ccc12 [JWH-200 6-hydroxyindole metabolite],,,7.27,94.41,83.20,65.52,61.65,
CCCCCn1cc(C(=O)c2cccc3c(Cl)cccc23)c2ccccc21 [JWH-398 5-chloronaphthyl isomer],,,35.53,7.06,19.67,91.33,23.50,
O=C(c1ccc(Cl)c2ccccc12)c1cn(CCCCCO)c2ccccc12 [JWH-398 N-(5-hydroxypentyl) metabolite],,,48.07,22.01,51.33,82.97,67.49,
CCCCCn1cc(C(=O)c2ccccc2OC)c2ccccc21 [RCS-4 2-methoxy isomer],,,29.14,15.28,29.32,87.27,42.74,
NCCc1c[nH]c2ccc(O)cc12 [Serotonin],<0.28,>0.75,,,,,,
